# What was measured:
# Type in all cases: biochemical
# Details in all cases: 5 μM substrate, 2 hours at room temperature
# Human recombinant HDAC4 = Human recombinant HDAC4 (Homo sapiens (Human), UniProt P56524); assay: HDAC4 assay (Test 1), fluorescence, acetyl-Gly-Ala-Lys(ε-trifluoroacetyl)-AMC substrate
# Procedure: Test 1: HDAC4 Assay Description
# (§1) Human recombinant HDAC4 was expressed in full length form (aa 2-1084) in Sf9 insect cells (obtained from ATCC) using baculovirus generated with Bac-to-Bac system (Invitrogen). Test compounds were serially diluted to reach final test concentrations from 0.000128 μM to 10 μM. HDAC4 and test compounds were incubated in 25 mM Tris buffer pH 8.0 containing 137 mM NaCl, 2.7 mM KCl, 1 mM MgCl2, 0.05% (w/v) bovine serum albumine and 0.005% (v/v) Triton-X-100 for 2 hours at room temperature in presence of 5 μM of acetyl-Gly-Ala-Lys(ε-trifluoroacetyl)-AMC (AMC=7-amino-4-methyl coumarin) in a final volume of 9 μl. Control wells with HDAC4 only (positive control) and without HDAC4 (negative control) were included on the microplate. Bovine trypsin (4.5 μl of a 300 nM solution) was added and the plate incubated for additional 15 minutes at room temperature. The plate was placed in a fluorescence microplate reader, and read at an excitation wavelength of 360 nm and an emission wavelength of 450 nm with a 10 nm bandpath. Fluorescence values for all wells containing HDAC4 (positive control and wells with test compound) were corrected by subtracting negative control fluorescence values, and IC50 values were calculated by fitting the dose-response curves to a 4-parameter logistic function.
# [1] = biological target: Human recombinant full length HDAC6 (Homo sapiens (Human), UniProt Q9UBN7); assay: HDAC6 assay (Test 3), acetyl-Gly-Ala-Lys(acetyl)-AMC substrate
# Sequence of Human recombinant full length HDAC6 (Q9UBN7 whole entry): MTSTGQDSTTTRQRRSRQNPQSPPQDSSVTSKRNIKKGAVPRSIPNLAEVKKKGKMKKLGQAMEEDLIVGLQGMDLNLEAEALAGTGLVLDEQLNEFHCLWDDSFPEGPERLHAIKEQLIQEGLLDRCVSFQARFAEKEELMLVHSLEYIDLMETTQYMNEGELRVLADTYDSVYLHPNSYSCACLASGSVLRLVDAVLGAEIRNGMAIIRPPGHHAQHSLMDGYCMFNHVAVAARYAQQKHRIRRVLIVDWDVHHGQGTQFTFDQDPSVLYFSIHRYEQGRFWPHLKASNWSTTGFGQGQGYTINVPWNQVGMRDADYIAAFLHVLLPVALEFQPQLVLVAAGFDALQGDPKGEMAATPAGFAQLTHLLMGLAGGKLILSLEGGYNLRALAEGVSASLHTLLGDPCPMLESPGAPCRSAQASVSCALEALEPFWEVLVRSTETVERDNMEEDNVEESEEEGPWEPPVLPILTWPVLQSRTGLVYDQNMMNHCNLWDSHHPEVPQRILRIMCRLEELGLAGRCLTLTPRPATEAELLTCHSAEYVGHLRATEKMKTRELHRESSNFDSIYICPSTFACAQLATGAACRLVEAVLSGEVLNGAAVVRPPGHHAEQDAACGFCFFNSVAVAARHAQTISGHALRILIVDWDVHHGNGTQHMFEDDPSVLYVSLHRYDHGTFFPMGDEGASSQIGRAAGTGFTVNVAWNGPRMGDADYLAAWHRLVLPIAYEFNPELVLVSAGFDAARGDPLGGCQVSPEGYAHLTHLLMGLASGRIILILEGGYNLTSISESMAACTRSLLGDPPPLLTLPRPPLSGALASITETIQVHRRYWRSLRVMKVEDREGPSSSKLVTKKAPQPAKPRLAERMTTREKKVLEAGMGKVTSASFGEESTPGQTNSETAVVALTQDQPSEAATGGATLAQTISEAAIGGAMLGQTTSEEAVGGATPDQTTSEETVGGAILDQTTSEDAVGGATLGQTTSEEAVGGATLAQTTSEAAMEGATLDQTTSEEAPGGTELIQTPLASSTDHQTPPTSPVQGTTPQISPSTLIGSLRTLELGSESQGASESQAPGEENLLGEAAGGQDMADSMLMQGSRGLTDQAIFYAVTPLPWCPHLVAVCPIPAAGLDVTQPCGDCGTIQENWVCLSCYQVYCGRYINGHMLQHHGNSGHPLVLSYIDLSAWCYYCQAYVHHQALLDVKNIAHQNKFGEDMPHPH
# Procedure: as §1
# Test 3: HDAC6 Assay Description
# A similar assay procedure as described in Test 1 was used for HDAC6. Human recombinant full length HDAC6 expressed in a baculovirus expression system was purchased from BPS BioSciences (San Diego, Calif., U.S.A.). The substrate used in the […] assay was 5 μM of acetyl-Gly-Ala-Lys (acetyl)-AMC.
# [2] = biological target: Human recombinant full length HDAC1 (Homo sapiens (Human), UniProt Q13547); assay: HDAC1 assay (Test 2), acetyl-Gly-Ala-Lys(acetyl)-AMC substrate
# Sequence of Human recombinant full length HDAC1 (Q13547 whole entry): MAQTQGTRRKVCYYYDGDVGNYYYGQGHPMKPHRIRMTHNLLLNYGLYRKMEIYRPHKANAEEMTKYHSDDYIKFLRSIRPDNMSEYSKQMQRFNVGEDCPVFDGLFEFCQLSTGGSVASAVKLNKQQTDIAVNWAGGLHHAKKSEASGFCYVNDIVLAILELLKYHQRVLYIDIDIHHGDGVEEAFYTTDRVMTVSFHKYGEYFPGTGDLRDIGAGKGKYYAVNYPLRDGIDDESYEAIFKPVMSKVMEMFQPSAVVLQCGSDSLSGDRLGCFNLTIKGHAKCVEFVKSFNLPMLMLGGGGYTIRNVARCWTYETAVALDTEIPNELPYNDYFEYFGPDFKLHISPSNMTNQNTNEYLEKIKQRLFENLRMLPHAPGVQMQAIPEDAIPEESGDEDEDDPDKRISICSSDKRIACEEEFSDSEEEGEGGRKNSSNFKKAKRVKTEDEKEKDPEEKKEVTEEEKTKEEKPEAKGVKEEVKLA
# Procedure: as §1
# Test 2: HDAC1 Assay Description
# A similar assay procedure as described in Test 1 was used for HDAC1. Human recombinant full length HDAC1 expressed in a baculovirus expression system was purchased from BPS BioSciences (San Diego, Calif., U.S.A.). The substrate used in the […] assay was 5 μM of acetyl-Gly-Ala-Lys(acetyl)-AMC.
# Sequence of Human recombinant HDAC4 (P56524 2-1084): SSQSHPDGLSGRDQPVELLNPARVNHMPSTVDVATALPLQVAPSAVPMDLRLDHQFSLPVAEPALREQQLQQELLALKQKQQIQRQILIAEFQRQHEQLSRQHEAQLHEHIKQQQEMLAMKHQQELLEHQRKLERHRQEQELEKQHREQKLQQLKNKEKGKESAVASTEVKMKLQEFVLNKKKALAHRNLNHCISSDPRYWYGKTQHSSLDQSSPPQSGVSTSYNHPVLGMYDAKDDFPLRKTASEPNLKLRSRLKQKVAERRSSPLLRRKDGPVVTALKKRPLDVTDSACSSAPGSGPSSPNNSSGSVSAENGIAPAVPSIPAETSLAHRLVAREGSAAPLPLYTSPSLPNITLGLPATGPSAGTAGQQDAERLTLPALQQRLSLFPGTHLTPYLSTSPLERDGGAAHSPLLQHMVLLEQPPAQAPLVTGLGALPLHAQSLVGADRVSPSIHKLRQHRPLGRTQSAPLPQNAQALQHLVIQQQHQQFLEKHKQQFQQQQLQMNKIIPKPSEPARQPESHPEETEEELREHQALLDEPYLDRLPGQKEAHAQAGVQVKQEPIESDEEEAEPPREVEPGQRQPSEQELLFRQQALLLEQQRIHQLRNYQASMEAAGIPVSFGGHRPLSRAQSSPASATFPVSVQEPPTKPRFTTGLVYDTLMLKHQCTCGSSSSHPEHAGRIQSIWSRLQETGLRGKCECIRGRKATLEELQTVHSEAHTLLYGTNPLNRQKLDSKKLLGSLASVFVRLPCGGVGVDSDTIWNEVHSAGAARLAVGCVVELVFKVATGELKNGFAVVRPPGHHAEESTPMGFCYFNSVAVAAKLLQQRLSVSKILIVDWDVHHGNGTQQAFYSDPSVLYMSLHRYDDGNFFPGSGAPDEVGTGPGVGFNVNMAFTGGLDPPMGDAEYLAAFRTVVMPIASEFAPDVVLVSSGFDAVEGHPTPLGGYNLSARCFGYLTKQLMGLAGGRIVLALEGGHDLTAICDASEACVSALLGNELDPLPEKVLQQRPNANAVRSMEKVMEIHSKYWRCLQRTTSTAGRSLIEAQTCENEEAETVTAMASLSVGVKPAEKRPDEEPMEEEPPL
SMILES,IC50 (Human recombinant HDAC4) [µM],IC50 [1] [µM],IC50 [2] [µM]
"C[C@H](CN(C)C)NC(=O)c1ccc(-c2noc(C(F)(F)F)n2)nc1 [Example 18, (R)—N-(1-(dimethylamino)propan-2-yl)-6-(5-(trifluoromethyl)-1,2,4-oxadiazol-3-yl)nicotinamide]",0.25,> 10,> 10
"CC(CN(C)C)NC(=O)c1ccc(-c2noc(C(F)(F)F)n2)nc1 (stereo not drawn) [Example 19, N-(1-(dimethylamino)propan-2-yl)-6-(5-(trifluoromethyl)-1,2,4-oxadiazol-3-yl)nicotinamide]",0.35,> 10,1.7
"C[C@@H](CO)NC(=O)c1ccc(-c2noc(C(F)(F)F)n2)nc1 [Example 20, (S)—N-(1-hydroxypropan-2-yl)-6-(5-(trifluoromethyl)-1,2,4-oxadiazol-3-yl)nicotinamide]",4.3,> 10,> 10
"CCN(CC)C[C@H](NC(=O)c1ccc(-c2noc(C(F)(F)F)n2)nc1)C(C)C [Example 22, (R)—N-(1-(diethylamino)-3-methylbutan-2-yl)-6-(5-(trifluoromethyl)-1,2,4-oxadiazol-3-yl)nicotinamide]",0.16,> 10,> 10
"C[C@H](CN(C)C)NC(=O)c1ccc(-c2noc(C(F)(F)F)n2)cn1 [Example 24, (R)—N-(1-(dimethylamino)propan-2-yl)-5-(5-(trifluoromethyl)-1,2,4-oxadiazol-3-yl)picolinamide]",0.99,> 10,> 10
"C[C@H](CN(C)C)NC(=O)c1ncc(-c2noc(C(F)(F)F)n2)cc1Cl [Example 25, (R)-3-chloro-N-(1-(dimethylamino)propan-2-yl)-5-(5-(trifluoromethyl)-1,2,4-oxadiazol-3-yl)picolinamide]",3.6,> 10,> 10
"C[C@H](CN(C)C)NC(=O)c1cnc(-c2noc(C(F)(F)F)n2)nc1 [Example 26, (R)—N-(1-(dimethylamino)propan-2-yl)-2-(5-(trifluoromethyl)-1,2,4-oxadiazol-3-yl)pyrimidine-5-carboxamide]",0.42,> 10,> 10
"FC(F)(F)c1nc(-c2ccc(NCc3ccccc3)cn2)no1 [Example 27, N-benzyl-6-(5-(trifluoromethyl)-1,2,4-oxadiazol-3-yl)pyridin-3-amine]",2.8,> 10,9.6
"Cc1ccc(CNc2ccc(-c3noc(C(F)(F)F)n3)cn2)cn1 [Example 32, N-((6-methylpyridin-3-yl)methyl)-5-(5-(trifluoromethyl)-1,2,4-oxadiazol-3-yl)pyridin-2-amine]",0.063,0.77,2.4
"Cc1ccc(CNc2ncc(-c3noc(C(F)(F)F)n3)cc2Cl)cn1 [Example 38, 3-Chloro-N-((6-methylpyridin-3-yl)methyl)-5-(5-(trifluoromethyl)-1,2,4-oxadiazol-3-yl)pyridin-2-amine]",0.021,1.55,1.4
"FC(F)(F)c1nc(-c2ccc(NCc3ccccc3)nn2)no1 [Example 40, N-benzyl-6-(5-(trifluoromethyl)-1,2,4-oxadiazol-3-yl)pyridazin-3-amine]",0.2,0.84,7.9
"C[C@H](Nc1cnc(-c2noc(C(F)(F)F)n2)nc1)c1ccccc1 [Example 42, (S)—N-(1-Phenylethyl)-2-(5-(trifluoromethyl)-1,2,4-oxadiazol-3-yl)pyrimidin-5-amine]",5,1.9,> 10
"FC(F)(F)c1nc(-c2ncc(NCc3ccncc3)cn2)no1 [Example 43, N-(Pyridin-4-ylmethyl)-2-(5-(trifluoromethyl)-1,2,4-oxadiazol-3-yl)pyrimidin-5-amine]",0.19,1.1,4.7

# More lines, in order of falling IC50 (Human recombinant HDAC4), values ahead:
IC50 (Human recombinant HDAC4) [µM],IC50 [1] [µM],IC50 [2] [µM],SMILES
0.093,> 10,> 10,"FC(F)(F)c1nc(-c2cnc(NCc3ccccc3)c(Cl)c2)no1 [Example 33, N-benzyl-3-chloro-5-(5-(trifluoromethyl)-1,2,4-oxadiazol-3-yl)pyridin-2-amine]"
0.079,1.8,6.1,"FC(F)(F)c1nc(-c2ccc(NCc3cccnc3)nc2)no1 [Example 30, N-(pyridin-3-ylmethyl)-5-(5-(trifluoromethyl)-1,2,4-oxadiazol-3-yl)pyridin-2-amine]"
0.073,3,> 10,"FC(F)(F)c1nc(-c2ccc(NCc3ccccc3)nc2)no1 [Example 28, N-benzyl-5-(5-(trifluoromethyl)-1,2,4-oxadiazol-3-yl)pyridin-2-amine]"
0.06,1.3,4,"C[C@@H](Nc1cnc(-c2noc(C(F)(F)F)n2)nc1)c1ccccc1 [Example 41, (R)—N-(1-Phenylethyl)-2-(5-(trifluoromethyl)-1,2,4-oxadiazol-3-yl)pyrimidin-5-amine]"
0.047,4.5,6.3,"C[C@@H](Nc1ncc(-c2noc(C(F)(F)F)n2)cc1Cl)c1ccccc1 [Example 34, (R)-3-chloro-N-(1-phenylethyl)-5-(5-(trifluoromethyl)-1,2,4-oxadiazol-3-yl)pyridin-2-amine]"
0.044,0.35,1.6,Cc1cc(C(C)Nc2ncc(-c3noc(C(F)(F)F)n3)cn2)ccn1 (stereo not drawn) [Example 16]
0.041,1.6,4.5,"FC(F)(F)c1nc(-c2ccc(NCc3ccncc3)nc2)no1 [Example 31, N-(pyridin-4-ylmethyl)-5-(5-(trifluoromethyl)-1,2,4-oxadiazol-3-yl)pyridin-2-amine]"
0.037,1.9,2.5,"FC(F)(F)c1nc(-c2cnc(NCc3ccccn3)c(Cl)c2)no1 [Example 39, 3-chloro-N-(pyridin-2-ylmethyl)-5-(5-(trifluoromethyl)-1,2,4-oxadiazol-3-yl)pyridin-2-amine]"
0.034,3.5,2.2,"Cc1cc(CN(C)c2ncc(-c3noc(C(F)(F)F)n3)cn2)ccn1 [Example 17, N-methyl-N-((2-methylpyridin-4-yl)methyl)-5-(5-(trifluoromethyl)-1,2,4-oxadiazol-3-yl)pyrimidin-2-amine]"
0.029,1.03,2.7,C[C@@H](Nc1ccc(-c2noc(C(F)(F)F)n2)cn1)c1ccncc1 [Example 44]
0.028,> 10,> 10,"CCN(CC)C[C@@H](C)NC(=O)c1ccc(-c2noc(C(F)(F)F)n2)nc1 [Example 23, (R)—N-(1-(diethylamino)propan-2-yl)-6-(5-(trifluoromethyl)-1,2,4-oxadiazol-3-yl)nicotinamide]"
0.027,0.64,6.2,"CC(Nc1ccc(-c2noc(C(F)(F)F)n2)cn1)c1ccccc1 (stereo not drawn) [Example 29, N-(1-phenylethyl)-5-(5-(trifluoromethyl)-1,2,4-oxadiazol-3-yl)pyridin-2-amine]"
0.02,0.21,2.6,"CCC(Nc1ncc(-c2noc(C(F)(F)F)n2)cn1)c1ccncc1 (stereo not drawn) [Example 15, N-(1-(pyridin-4-yl)propyl)-5-(5-(trifluoromethyl)-1,2,4-oxadiazol-3-yl)pyrimidin-2-amine]"
0.019,2,1.2,"FC(F)(F)c1nc(-c2cnc(NCc3cccnc3)c(Cl)c2)no1 [Example 37, 3-chloro-N-(pyridin-3-ylmethyl)-5-(5-(trifluoromethyl)-1,2,4-oxadiazol-3-yl)pyridin-2-amine]"
0.018,> 10,> 10,"C[C@H](CN(C)Cc1ccccc1)NC(=O)c1ccc(-c2noc(C(F)(F)F)n2)nc1 [Example 21, (R)—N-(1-(benzyl(methyl)amino)propan-2-yl)-6-(5-(trifluoromethyl)-1,2,4-oxadiazol-3-yl)nicotinamide]"
0.011,1.8,1.1,"FC(F)(F)c1nc(-c2cnc(NCc3ccncc3)c(Cl)c2)no1 [Example 35, 3-chloro-N-(pyridin-4-ylmethyl)-5-(5-(trifluoromethyl)-1,2,4-oxadiazol-3-yl)pyridin-2-amine]"
0.0064,1.1,0.86,"CC(Nc1ncc(-c2noc(C(F)(F)F)n2)cc1Cl)c1ccncc1 (stereo not drawn) [Example 36, 3-chloro-N-(1-(pyridin-4-yl)ethyl)-5-(5-(trifluoromethyl)-1,2,4-oxadiazol-3-yl)pyridin-2-amine]"
